Measurements reported in paper PMC12657942, “Measurement and modeling of rizatriptan in supercritical CO2 for pharmaceutical processing” (Scientific Reports, 2025).
In brackets after ≈: the same amount, converted by molar mass.

Columns and labels:
[1] = Solubility of rizatriptan in supercritical CO2, static gravimetric method; format: physicochemical; conditions: read-out: Solubility in supercritical carbon dioxide
Description: (§1) A specialized high-pressure system is employed to measure the solubility of rizatriptan using gravimetric techniques in a supercritical CO2[6]. A 200 mL vessel capable of withstanding pressures up to 35 MPa and temperatures up to 423 K is prepared with leak-free seals, valves, and fittings. All valves and connectors were 1/8 inch in size. The system’s pressure and temperature sensors are calibrated for accuracy. Next, 2000 mg of rizatriptan powder is weighed precisely using an analytical balance with 0.01 mg of sensitivity. The powder is then compacted into 5-mm diameter tablets to ensure uniformity and structural integrity. The tablets are placed in a basket inside the vessel to maximize their exposure to SC-CO2. CO2 is introduced gradually using a high-precision pump (SC-1000, SUPEREX), with the pressure increased in 0.05 MPa increments to maintain stability. The pressure is monitored and held within ± 0.01 MPa. Temperature is controlled within ± 0.1 K using a thermocouple, and the mixture is stirred at 250 rpm to ensure uniformity. […] The pressure and temperature indicators are checked to ensure stability. After equilibration, the vessel is carefully depressurized to ambient conditions to halt dissolution without losing the sample. The remaining tablets are then removed and cleaned of residual CO2. If needed, they are dried in a desiccator. The undissolved drug is weighed using a high-precision balance. The experiment is replicated at least three times to calculate the mean solubility and standard deviation. The following formula was used to calculate the mass of dissolved rizatriptan:1
Include the molecular weights of rizatriptan ([…]) and CO2 (44.01 g/mol) in the mole fraction calculations.2 3 4 5
The measurements were conducted at four isotherms (308.2 K, 318.2 K, 328.2 K, and 338.2 K) and […] pressure points (12, 15, 18, 21, 24, 27, 30 MPa). Table 3 documents the experimental conditions, including temperature, pressure, SC-CO2 density, mole fraction, standard deviation, and solubility in grams per liter.

[2] = Preliminary tests of equilibration time for solubility in SC-CO2 (Table S1); format: physicochemical; conditions: supercritical CO2, 65 °C, organic solvent or mixture, thermodynamic from solid, read-out: Solubility (preliminary test)
Description: as §1
Table S1. Preliminary tests.

[3] = Enthalpies (total, vaporization, solvation) derived from density-based solubility models; format: physicochemical; conditions: SC-CO2
Description: This study thoroughly examines the solubility of rizatriptan in SC-CO2 for pharmaceutical processing by supercritical fluid technology. A series of experimental solubility measurements were conducted at a range of temperatures, from 308.2 to 338.2 K, and pressures ranging from 12 to 30 megapascals. Seven density-based models ( Chrastil, Bartle, K–J, Méndez–Santiago–Teja, Bian et al., and Sodeifian et al. (Ⅰ and Ⅱ)) and three equations of state (Peng–Robinson, Soave–Redlich–Kwong, and regular solution) were employed to analyze the resulting data. Additionally, the enthalpies of the total, vaporization, and solvation processes were derived to elucidate phase behavior.
This leads to the logarithmic relationship, where the enthalpy term combines solvation and vaporization effects
The Bartle model extends the concept by normalizing solubility with pressure and using a reduced density term, allowing direct estimation of the solute’s heat of vaporization from parameter. […] The MST model was derived from a Taylor expansion of the Helmholtz free energy near the solvent’s critical point, focusing on infinite dilution behavior. By incorporating the Clausius–Clapeyron equation for missing sublimation pressure data, it becomes a robust three-parameter tool. It excels in self-consistency checks, where plotting ) against density (ρ), should yield a single line for reliable data. […]

[4] = parameters: method as in PMID 36559181, doi:10.1007/s40005-015-0206-z, PMID 20582194, PMID 10551439; conditions: conventional oral tablets; cited from earlier work

SMILES: CN(C)CCc1c[nH]c2ccc(Cn3cncn3)cc12 [Rizatriptan, Rizatriptan benzoate]
- solubility at 240 min ([1]; supercritical CO2, T 308.0 K (text 308.2 K), P 12 MPa, ρCO2 768.52 kg/m^3): 61.6 µg/mL (≈ 229 µM)
- solubility at 240 min ([1]; supercritical CO2, T 308.0 K (text 308.2 K), P 15 MPa, ρCO2 816.10 kg/m^3): 88 µg/mL (≈ 327 µM)
- solubility at 240 min ([1]; supercritical CO2, T 308.0 K (text 308.2 K), P 18 MPa, ρCO2 816.10 kg/m^3): 107 µg/mL (≈ 396 µM)
- solubility at 240 min ([1]; supercritical CO2, T 308.0 K (text 308.2 K), P 21 MPa, ρCO2 874.55 kg/m^3): 138 µg/mL (≈ 512 µM)
- solubility at 240 min ([1]; supercritical CO2, T 308.0 K (text 308.2 K), P 24 MPa, ρCO2 895.66 kg/m^3): 181 µg/mL (≈ 672 µM)
- solubility at 240 min ([1]; supercritical CO2, T 308.0 K (text 308.2 K), P 27 MPa, ρCO2 913.70 kg/m^3): 210 µg/mL (≈ 779 µM)
- solubility at 240 min ([1]; supercritical CO2, T 308.0 K (text 308.2 K), P 30 MPa, ρCO2 929.85 kg/m^3): 237 µg/mL (≈ 878 µM)
- solubility at 240 min ([1]; supercritical CO2, T 318.0 K (text 318.2 K), P 12 MPa, ρCO2 659.80 kg/m^3): 40.6 µg/mL (≈ 151 µM)
- solubility at 240 min ([1]; supercritical CO2, T 318.0 K (text 318.2 K), P 15 MPa, ρCO2 743.83 kg/m^3): 83.5 µg/mL (≈ 310 µM)
- solubility at 240 min ([1]; supercritical CO2, T 318.0 K (text 318.2 K), P 18 MPa, ρCO2 790.29 kg/m^3): 114 µg/mL (≈ 423 µM)
- solubility at 240 min ([1]; supercritical CO2, T 318.0 K (text 318.2 K), P 21 MPa, ρCO2 823.80 kg/m^3): 158 µg/mL (≈ 585 µM)
- solubility at 240 min ([1]; supercritical CO2, T 318.0 K (text 318.2 K), P 24 MPa, ρCO2 850.15 kg/m^3): 213 µg/mL (≈ 790 µM)
- solubility at 240 min ([1]; supercritical CO2, T 318.0 K (text 318.2 K), P 27 MPa, ρCO2 872.14 kg/m^3): 250 µg/mL (≈ 928 µM)
- solubility at 240 min ([1]; supercritical CO2, T 318.0 K (text 318.2 K), P 30 MPa, ρCO2 890.90 kg/m^3): 269 µg/mL (≈ 998 µM)
- solubility at 240 min ([1]; supercritical CO2, T 328.0 K (text 328.2 K), P 12 MPa, ρCO2 506.75 kg/m^3): 20.4 µg/mL (≈ 75.7 µM)
- solubility at 240 min ([1]; supercritical CO2, T 328.0 K (text 328.2 K), P 15 MPa, ρCO2 654.94 kg/m^3): 57.8 µg/mL (≈ 215 µM)
- solubility at 240 min ([1]; supercritical CO2, T 328.0 K (text 328.2 K), P 18 MPa, ρCO2 724.13 kg/m^3): 114 µg/mL (≈ 421 µM)
- solubility at 240 min ([1]; supercritical CO2, T 328.0 K (text 328.2 K), P 21 MPa, ρCO2 768.74 kg/m^3): 165 µg/mL (≈ 613 µM)
- solubility at 240 min ([1]; supercritical CO2, T 328.0 K (text 328.2 K), P 24 MPa, ρCO2 801.92 kg/m^3): 216 µg/mL (≈ 800 µM)
- solubility at 240 min ([1]; supercritical CO2, T 328.0 K (text 328.2 K), P 27 MPa, ρCO2 828.51 kg/m^3): 260 µg/mL (≈ 966 µM)
- solubility at 240 min ([1]; supercritical CO2, T 328.0 K (text 328.2 K), P 30 MPa, ρCO2 850.83 kg/m^3): 288 µg/mL (≈ 1070 µM)
- solubility at 240 min ([1]; supercritical CO2, T 338.0 K (text 338.2 K), P 12 MPa, ρCO2 384.17 kg/m^3): 8.3 µg/mL (≈ 30.8 µM)
- solubility at 240 min ([1]; supercritical CO2, T 338.0 K (text 338.2 K), P 15 MPa, ρCO2 555.33 kg/m^3): 67.5 µg/mL (≈ 251 µM)
- solubility at 240 min ([1]; supercritical CO2, T 338.0 K (text 338.2 K), P 18 MPa, ρCO2 651.28 kg/m^3): 124 µg/mL (≈ 459 µM)
- solubility at 240 min ([1]; supercritical CO2, T 338.0 K (text 338.2 K), P 21 MPa, ρCO2 709.59 kg/m^3): 176 µg/mL (≈ 655 µM)
- solubility at 240 min ([1]; supercritical CO2, T 338.0 K (text 338.2 K), P 24 MPa, ρCO2 751.27 kg/m^3): 223 µg/mL (≈ 829 µM)
- solubility at 240 min ([1]; supercritical CO2, T 338.0 K (text 338.2 K), P 27 MPa, ρCO2 783.19 kg/m^3): 270 µg/mL (≈ 1000 µM)
- solubility at 240 min ([1]; supercritical CO2, T 338.0 K (text 338.2 K), P 30 MPa, ρCO2 809.68 kg/m^3): 302 µg/mL (≈ 1120 µM)
- solubility at 60 min ([2]; T 338, P 30, Time 60): 78.8 ± 0.7 µg/mL (≈ 293 µM)
- solubility at 90 min ([2]; T 338, P 30, Time 90): 167.6 ± 0.8 µg/mL (≈ 622 µM)
- solubility at 120 min ([2]; T 338, P 30, Time 120): 212.9 ± 0.8 µg/mL (≈ 790 µM)
- solubility at 150 min ([2]; T 338, P 30, Time 150): 279 ± 1.1 µg/mL (≈ 1040 µM)
- solubility at 180 min ([2]; T 338, P 30, Time 180): 285.8 ± 1.2 µg/mL (≈ 1060 µM)
- solubility at 210 min ([2]; T 338, P 30, Time 210): 301.8 ± 1.4 µg/mL (≈ 1120 µM)
- solubility at 240 min ([2]; T 338, P 30, Time 240): 301.8 ± 1.5 µg/mL (≈ 1120 µM)
- enthalpy of vaporization [3]: 12.08 kcal/mol
- overall (total) enthalpy [3]: 9.097 kcal/mol
- bioavailability [4]: 40–45%
